This passage reports IC50 results from PubChem BioAssay AID504515 (Sanford-Burnham Center for Chemical Genomics, 2011).

Activity calls are given as the source filed them.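 The calls were made as follows: active = mean IC50 below 800 nM; inactive = the rest.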 Where only a bound is given, the exact number is not on record here.

In this experiment the test system is Jurkat NF-kB luciferase, PMA/ionomycin-induced, luminescence 16 h. The experiment is described as follows: NF-kB reporter inhibition in Jurkat T cells, SAR follow-up, B-cell antigen receptor NF-kB inhibitors, cell-based, luminescence, set 2 (AID 504515).
For `C#CCNC(=O)CSCc1nc(-c2ccc(OCC)cc2)oc1C`, the IC50 (usually the concentration at which inhibition is half-maximal) was > 800 nM (inactive). In the case of `CCCCc1ccc(-c2noc(CCC(=O)NC)n2)cc1` it was > 800 nM (inactive); in that of `CCOc1ccc(-c2nc(CSCC(=O)O)c(C)o2)cc1`, 30 nM. The figure for `CC(C)c1ccc(-c2noc(CCC(=O)NC3CC3)n2)cc1` is > 800 nM (inactive); for `Cc1oc(-c2ccc(OC(F)(F)F)cc2)nc1CSCC(=O)O` it is 290 nM; for `CCCOc1ccc(-c2nc(CSCC(=O)NCc3ccco3)c(C)o2)cc1` it is > 800 nM (inactive).

Take `CCCCOc1ccc(-c2nc(CSCC(=O)O)c(C)o2)cc1`: the half-maximal inhibitory concentration (IC50) is 70 nM. The figure for `CCOc1ccc(-c2nc(CSCC(N)=O)c(C)o2)cc1` is > 800 nM (inactive); for `CCCOc1ccc(-c2nc(CSCC(=O)O)c(C)o2)cc1` it is 30 nM; for `CCCOc1ccc(-c2nc(CSCC(=O)NC3CC3)c(C)o2)cc1` it is > 800 nM (inactive).

For the molecule `CCCCc1ccc(-c2noc(CCC(=O)NCC)n2)cc1`, the IC50 was > 800 nM (inactive).
